biological target: T1, purified human HDAC6 (Homo sapiens, UniProt Q9UBN7); test: HDAC6 Enzyme Assay; assay type: biochemical; details: bin: greater than 500 nM and less than 1 μM (lower bound in nM, upper bound in μM)
T1 construct: purchased BPS Bioscience 5006
T1 sequence (Q9UBN7 1-1215): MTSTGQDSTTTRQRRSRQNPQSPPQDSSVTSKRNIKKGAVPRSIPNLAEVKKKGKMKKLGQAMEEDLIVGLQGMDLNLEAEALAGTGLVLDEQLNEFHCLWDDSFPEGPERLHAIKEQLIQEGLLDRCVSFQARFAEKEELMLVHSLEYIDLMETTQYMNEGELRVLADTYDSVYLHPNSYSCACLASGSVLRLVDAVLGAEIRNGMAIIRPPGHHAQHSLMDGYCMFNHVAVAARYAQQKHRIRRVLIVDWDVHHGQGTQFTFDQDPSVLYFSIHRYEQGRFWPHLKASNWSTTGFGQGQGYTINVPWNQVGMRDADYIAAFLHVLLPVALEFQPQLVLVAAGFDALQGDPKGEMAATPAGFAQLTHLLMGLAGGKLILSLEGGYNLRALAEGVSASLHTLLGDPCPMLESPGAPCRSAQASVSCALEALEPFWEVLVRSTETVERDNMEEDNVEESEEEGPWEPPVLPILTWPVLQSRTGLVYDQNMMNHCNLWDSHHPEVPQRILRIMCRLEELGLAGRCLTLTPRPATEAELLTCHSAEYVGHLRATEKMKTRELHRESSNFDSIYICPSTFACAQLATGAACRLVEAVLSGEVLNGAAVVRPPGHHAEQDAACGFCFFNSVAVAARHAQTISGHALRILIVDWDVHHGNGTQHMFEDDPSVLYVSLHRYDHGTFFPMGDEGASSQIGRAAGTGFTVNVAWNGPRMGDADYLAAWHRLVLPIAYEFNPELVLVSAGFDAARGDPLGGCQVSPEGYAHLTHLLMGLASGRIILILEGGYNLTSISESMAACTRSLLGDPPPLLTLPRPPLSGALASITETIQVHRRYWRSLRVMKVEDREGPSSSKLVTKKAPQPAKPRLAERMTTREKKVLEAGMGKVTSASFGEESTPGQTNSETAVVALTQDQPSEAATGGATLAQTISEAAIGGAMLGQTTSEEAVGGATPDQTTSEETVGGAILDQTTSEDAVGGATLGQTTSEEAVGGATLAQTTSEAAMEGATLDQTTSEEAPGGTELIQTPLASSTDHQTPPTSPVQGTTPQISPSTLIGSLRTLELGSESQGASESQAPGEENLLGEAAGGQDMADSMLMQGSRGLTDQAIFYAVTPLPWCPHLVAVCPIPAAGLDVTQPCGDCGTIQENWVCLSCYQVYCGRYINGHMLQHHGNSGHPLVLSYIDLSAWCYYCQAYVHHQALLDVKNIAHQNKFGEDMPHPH
In short: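 Deacetylated product quantified after trypsin digestion as released AMC (340/460 nm), following a 1 h, 30 °C reaction of human HDAC6 with Ac-RGK(Ac)-AMC peptide, quenched by trichostatin A. IC50 derived from DMSO-normalized curves.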

| IC50 [nM] | Compound |
| --- | --- |
| 500 to 1000 | CC(C)(C)C(NC(=O)c1cc(C(F)(F)F)cc(C(F)(F)F)c1)c1ccc(C(=O)NO)cc1 (stereo not drawn) [Compound I-52, N-(1-{4-[(hydroxyamino)carbonyl]phenyl}-2,2-dimethylpropyl)-3,5-bis(trifluoromethyl)benzamide] |
| 500 to 1000 | CC(NC(=O)c1cc(C(C)(C)C)nn1C)c1cccc(C(=O)NO)c1 (stereo not drawn) [Compound I-309, 3-tert-butyl-N-(1-{3-[(hydroxyamino)carbonyl]phenyl}ethyl)-1-methyl-1H-pyrazole-5-carboxamide] |
| 500 to 1000 | CC(C)(C)C(NC(=O)c1ccc(C(F)(F)F)cc1)c1ccc(C(=O)NO)cc1 (stereo not drawn) [Compound I-303, 4-(2,2-dimethyl-1-{[4-(trifluoromethyl)benzoyl]amino}propyl)-N-hydroxybenzamide] |

same assay, conditions: bin: greater than 1 μM

| Compound | IC50 [nM] |
| --- | --- |
| CC(NC(=O)C12CC3CC(CC(C3)C1)C2)c1cccc(C(=O)NO)c1 (stereo not drawn) [Compound I-83, N-(1-{3-[(hydroxyamino)carbonyl]phenyl}ethyl)adamantane-1-carboxamide] | > 1000 |
| CC(C)[C@@H](NS(=O)(=O)c1ccc(C(F)(F)F)cc1)c1ccc(C(=O)NO)cc1 [Compound I-189, N-hydroxy-4-[(1R)-2-methyl-1-({[4-(trifluoromethyl)phenyl]sulfonyl}amino)propyl]benzamide] | > 1000 |
| CC(C)[C@H](NC(=O)C12CC3CC(CC(C3)C1)C2)c1ccc(C(=O)NO)cc1 [Compound I-157, N-((1S)-1-{4-[(hydroxyamino)carbonyl]phenyl}-2-methylpropyl)adamantane-1-carboxamide] | > 1000 |

Further lines, results first:

| IC50 [nM] | Compound |
| --- | --- |
| > 1000 | CC(C)(C)C(NC(=O)Cc1csc2ccc(Cl)cc12)c1ccc(C(=O)NO)cc1 (stereo not drawn) [Compound I-345, 4-(1-{[(5-chloro-1-benzothien-3-yl)acetyl]amino}-2,2-dimethylpropyl)-N-hydroxybenzamide] |
| > 1000 | CC(NC(=O)c1cc(Cl)c(Cl)n1C)c1cccc(C(=O)NO)c1 (stereo not drawn) [Compound I-39, 4,5-dichloro-N-(1-{3-[(hydroxyamino)carbonyl]phenyl}ethyl)-1-methyl-1H-pyrrole-2-carboxamide] |
| > 1000 | CC(NC(=O)c1cnccn1)c1cccc(C(=O)NO)c1 (stereo not drawn) [Compound I-165, N-(1-{3-[(hydroxyamino)carbonyl]phenyl}ethyl)pyrazine-2-carboxamide] |
| > 1000 | CC(C)(C)C(NC(=O)C12CC3CC(CC(C3)C1)C2)c1ccc(C(=O)NO)cc1 (stereo not drawn) [Compound I-162, N-(1-{4-[(hydroxyamino)carbonyl]phenyl}-2,2-dimethylpropyl)adamantane-1-carboxamide] |
| > 1000 | C[C@@H](NC(=O)NC12CC3CC(CC(C3)C1)C2)c1cccc(C(=O)NO)c1 [Compound I-343, 3-[(1R)-1-({[1-adamantylamino]carbonyl}amino)ethyl]-N-hydroxybenzamide] |

same assay, conditions: purified human HDAC6, substrate Ac-Arg-Gly-Lys(Ac)-AMC, 1 hour at 30° C.; reported as bins

| Compound | IC50 [nM] |
| --- | --- |
| CC(C)C(NC(=O)c1cc2ccccc2o1)c1ccc(C(=O)NO)cc1 (stereo not drawn) [Compound I-32, N-(1-{4-[(hydroxyamino)carbonyl]phenyl}-2-methylpropyl)-1-benzofuran-2-carboxamide] | < 100 |
| C[C@@H](NC(=O)c1cc(Cl)c(Cl)n1C)c1ccc(C(=O)NO)cc1 [Compound I-359, 4,5-dichloro-N-((1R)-1-{4-[(hydroxyamino)carbonyl]phenyl}ethyl)-1-methyl-1H-pyrrole-2-carboxamide] | < 100 |
| CC(C)Cc1cc(C(=O)NC(C)c2ccc(C(=O)NO)cc2)no1 (stereo not drawn) [Compound I-286, N-(1-{4-[(hydroxyamino)carbonyl]phenyl}ethyl)-5-isobutylisoxazole-3-carboxamide] | < 100 |
| CC(C)C(NC(=O)c1cnc2ccccc2n1)c1ccc(C(=O)NO)cc1 (stereo not drawn) [Compound I-190, N-(1-{4-[(hydroxyamino)carbonyl]phenyl}-2-methylpropyl)quinoxaline-2-carboxamide] | < 100 |
| C[C@@H](NC(=O)C1(C)CCCCC1)c1ccc(C(=O)NO)cc1 [Compound I-26, N-hydroxy-4-((1R)-1-{[(1-methylcyclohexyl)carbonyl]amino}ethyl)benzamide] | < 100 |
| Cc1ccc2[nH]c(C(=O)NC(c3ccc(C(=O)NO)cc3)C(C)C)cc2c1 (stereo not drawn) [Compound I-69, N-(1-{4-[(hydroxyamino)carbonyl]phenyl}-2-methylpropyl)-5-methyl-1H-indole-2-carboxamide] | < 100 |
| CC(C)[C@@H](NC(=O)c1cc2ccccc2[nH]1)c1ccc(C(=O)NO)cc1 [Compound I-68, N-((1R)-1-{4-[(hydroxyamino)carbonyl]phenyl}-2-methylpropyl)-1H-indole-2-carboxamide] | < 100 |
| Cn1ccc2cc(C(=O)NC(c3ccc(C(=O)NO)cc3)C(C)(C)C)ccc21 (stereo not drawn) [Compound I-145, N-(1-{4-[(hydroxyamino)carbonyl]phenyl}-2,2-dimethylpropyl)-1-methyl-1H-indole-5-carboxamide] | < 100 |
| CC(NC(=O)c1ccc2nsnc2c1)c1ccc(C(=O)NO)cc1 (stereo not drawn) [Compound I-233, N-(1-{4-[(hydroxyamino)carbonyl]phenyl}ethyl)-2,1,3-benzothiadiazole-5-carboxamide] | < 100 |
| CC(NC(=O)Nc1ccc(OC(F)F)cc1)c1ccc(C(=O)NO)cc1 (stereo not drawn) [Compound I-150, 4-{1-[({[4-(difluoromethoxy)phenyl]amino}carbonyl)amino]ethyl}-N-hydroxybenzamide] | < 100 |
| CC(NC(=O)c1csc2ccccc12)c1cccc(C(=O)NO)c1 (stereo not drawn) [Compound I-117, N-(1-{3-[(hydroxyamino)carbonyl]phenyl}ethyl)-1-benzothiophene-3-carboxamide] | 100 to 500 |

Other lines, results leading:

| IC50 [nM] | Compound |
| --- | --- |
| 100 to 500 | CC(C)C(NC(=O)c1ccc(F)cc1)c1ccc(C(=O)NO)cc1 (stereo not drawn) [Compound I-40, 4-fluoro-N-(1-{4-[(hydroxyamino)carbonyl]phenyl}-2-methylpropyl)benzamide] |
| < 100 | CC(NC(=O)C1CC=CCC1)c1ccc(C(=O)NO)cc1 (stereo not drawn) [Compound I-348, 4-{1-[(cyclohex-3-en-1-ylcarbonyl)amino]ethyl}-N-hydroxybenzamide] |
| < 100 | CC(NC(=O)c1ccc(-n2cccc2)cc1)c1ccc(C(=O)NO)cc1 (stereo not drawn) [Compound I-63, N-(1-{4-[(hydroxyamino)carbonyl]phenyl}ethyl)-4-(1H-pyrrol-1-yl)benzamide] |
| 100 to 500 | Cc1onc(-c2ccccc2)c1NC(=O)NC(C)c1ccc(C(=O)NO)cc1 (stereo not drawn) [Compound I-305, N-hydroxy-4-[1-({[(5-methyl-3-phenylisoxazol-4-yl)amino]carbonyl}amino)ethyl]benzamide] |
| < 100 | CC(NC(=O)C1CCCCCC1)c1ccc(C(=O)NO)cc1 (stereo not drawn) [Compound I-213, N-(1-{4-[(hydroxyamino)carbonyl]phenyl}ethyl)cycloheptanecarboxamide] |
| < 100 | CC(C)(C)C(NC(=O)c1cc2ccccc2s1)c1ccc(C(=O)NO)cc1 (stereo not drawn) [Compound I-308, N-(1-{4-[(hydroxyamino)carbonyl]phenyl}-2,2-dimethylpropyl)-1-benzothiophene-2-carboxamide] |
| < 100 | CC(NC(=O)Nc1cc(Cl)ccc1Cl)c1ccc(C(=O)NO)cc1 (stereo not drawn) [Compound I-89, 4-[1-({[(2,5-dichlorophenyl)amino]carbonyl}amino)ethyl]-N-hydroxybenzamide] |
| < 100 | C[C@@H](NC(=O)c1cc2ccccc2n1C)c1ccc(C(=O)NO)cc1 [Compound I-115, N-((1R)-1-{4-[(hydroxyamino)carbonyl]phenyl}ethyl)-1-methyl-1H-indole-2-carboxamide] |
| 100 to 500 | CC(NS(=O)(=O)Cc1ccccc1)c1ccc(C(=O)NO)cc1 (stereo not drawn) [Compound I-338, 4-{1-[(benzylsulfonyl)amino]ethyl}-N-hydroxybenzamide] |
| 100 to 500 | C[C@H](NC(=O)c1cc2ccccc2s1)c1cccc(C(=O)NO)c1 [Compound I-240, N-((1S)-1-{3-[(hydroxyamino)carbonyl]phenyl}ethyl)-1-benzothiophene-2-carboxamide] |
| < 100 | CC(NC(=O)Nc1ccc(C(C)(C)C)cc1)c1ccc(C(=O)NO)cc1 (stereo not drawn) [Compound I-140, 4-[1-({[(4-tert-butylphenyl)amino]carbonyl}amino)ethyl]-N-hydroxybenzamide] |
